Measured values published in patent US9347934B2, “Assays for identifying compounds that modulate bitter taste” (CHROMOCELL CORPORATION, priority 2011, dated 2016).

How the values were obtained:
[1] = target: T1, TAS2R49 (Homo sapiens, UniProt P59543); experiment: Calcium fluorescence functional assay, TAS2R49 cell line; type: cell-based; conditions: 20 mM tastant; cell line expressing human TAS2R49 and mouse Gα15
T1 construct: expressed in transfected cells
T1 sequence (P59543 1-309): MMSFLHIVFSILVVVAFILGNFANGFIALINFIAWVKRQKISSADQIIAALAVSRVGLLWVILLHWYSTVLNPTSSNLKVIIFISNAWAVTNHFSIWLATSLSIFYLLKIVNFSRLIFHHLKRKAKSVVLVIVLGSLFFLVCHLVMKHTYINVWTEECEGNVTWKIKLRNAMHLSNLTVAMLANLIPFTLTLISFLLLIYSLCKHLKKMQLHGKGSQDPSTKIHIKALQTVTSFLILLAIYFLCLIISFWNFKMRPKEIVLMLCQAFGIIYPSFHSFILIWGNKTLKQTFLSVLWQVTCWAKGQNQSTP
Method: (§1) Accordingly, each cell line of the panel expressed a human bitter taste receptor and mouse Gα15 signaling protein.
(§2) Probenecid was not included in the load solution.
(§3) After dye loading, cell plates were placed in a fluorescent plate reader (e.g., FDSS6000 (Hamamatsu, Japan)) and receptor stimulation was measured by adding 50 ul of 3× concentrated ligand/agonist stock. Fluorescence was monitored continuously for 10 s before agonist addition and for 100-250 s after stimulation with agonist.
(§4) Receptor Activation is defined as follows: % Activation=[((Maximum signal fluorescence−Minimum signal fluorescence)−(Maximum control fluorescence−Minimum control fluorescence))/(Maximum buffer fluorescence−Minimum buffer fluorescence)]*100 Functional Response=[(Maximum signal fluorescence−Minimum signal fluorescence)−(Maximum control fluorescence−Minimum control fluorescence)] • Signal Fluorescence: refers to the change in fluorescence seen with addition of ligand • Control fluorescence: refers to the change in fluorescence seen with addition of buffer (negative control) • Calcium signals from ligand and control were normalized to the basal fluorescence of the cells prior to the stimulation.
(§5) A concentration analysis was performed and EC50 values were calculated by nonlinear regression using the formula: Y=Bottom+(Top-Bottom)/(1+10^((Log EC50-X)*Hill Slope)), X=log of dose or concentration, Y=Response (increasing as X increases), Top=maximum signal, Bottom=minimum signal.

[2] = target: T2, TAS2R13 (Homo sapiens, UniProt Q9NYV9); experiment: Calcium fluorescence functional assay, TAS2R13 cell line; type: cell-based; conditions: for TAS2R13 bitter taste receptor activity (changes in intracellular calcium): 20 mM tastant, cell line expressing human TAS2R13 and mouse Gα15
T2 construct: expressed in transfected cells
T2 sequence (Q9NYV9 1-303): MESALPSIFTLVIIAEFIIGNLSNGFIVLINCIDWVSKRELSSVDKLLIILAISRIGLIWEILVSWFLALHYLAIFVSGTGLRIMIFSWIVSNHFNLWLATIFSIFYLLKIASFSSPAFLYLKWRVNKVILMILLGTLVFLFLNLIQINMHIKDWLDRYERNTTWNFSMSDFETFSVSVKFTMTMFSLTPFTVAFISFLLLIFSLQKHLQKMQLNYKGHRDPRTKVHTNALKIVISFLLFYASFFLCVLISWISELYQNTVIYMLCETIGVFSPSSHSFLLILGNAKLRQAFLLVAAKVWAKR
Method: as §1, §2, §3, §4, §5

[3] = target: T3, TAS2R41 (Homo sapiens, UniProt P59536); experiment: Calcium fluorescence functional assay, TAS2R41 cell line; type: cell-based; conditions: 20 mM tastant; cell line expressing human TAS2R41 and mouse Gα15
T3 construct: expressed in transfected cells
T3 sequence (P59536 1-307): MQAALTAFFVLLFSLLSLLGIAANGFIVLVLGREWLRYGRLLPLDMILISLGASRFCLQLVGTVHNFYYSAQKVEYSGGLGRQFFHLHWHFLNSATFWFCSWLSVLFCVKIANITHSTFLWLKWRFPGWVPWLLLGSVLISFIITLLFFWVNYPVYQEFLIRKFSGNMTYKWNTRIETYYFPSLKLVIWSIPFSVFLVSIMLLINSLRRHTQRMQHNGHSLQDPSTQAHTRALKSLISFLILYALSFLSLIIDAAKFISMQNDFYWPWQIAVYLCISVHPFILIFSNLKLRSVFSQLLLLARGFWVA
Method: as §1, §2, §3, §4, §5

[4] = target: T4, TAS2R5 (Homo sapiens, UniProt Q9NYW4); experiment: Calcium fluorescence functional assay, TAS2R5 cell line; type: cell-based; conditions: 20 mM tastant; cell line expressing human TAS2R5 and mouse Gα15
T4 construct: expressed in transfected cells
T4 sequence (Q9NYW4 1-299): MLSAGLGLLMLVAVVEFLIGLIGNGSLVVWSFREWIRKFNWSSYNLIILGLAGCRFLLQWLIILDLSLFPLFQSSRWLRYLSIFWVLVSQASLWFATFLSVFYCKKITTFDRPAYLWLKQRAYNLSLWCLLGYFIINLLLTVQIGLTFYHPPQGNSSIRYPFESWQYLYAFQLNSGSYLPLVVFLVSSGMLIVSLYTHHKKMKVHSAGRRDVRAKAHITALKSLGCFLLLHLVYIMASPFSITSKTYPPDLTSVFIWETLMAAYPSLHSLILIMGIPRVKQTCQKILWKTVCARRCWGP
Method: as §1, §2, §3, §4, §5

[5] = target: T5, TAS2R55 (Homo sapiens, UniProt Q7RTR8); experiment: Calcium fluorescence functional assay, TAS2R55 cell line; type: cell-based; conditions: 20 mM tastant; cell line expressing human TAS2R55 and mouse Gα15
T5 construct: expressed in transfected cells
T5 sequence (Q7RTR8 1-314): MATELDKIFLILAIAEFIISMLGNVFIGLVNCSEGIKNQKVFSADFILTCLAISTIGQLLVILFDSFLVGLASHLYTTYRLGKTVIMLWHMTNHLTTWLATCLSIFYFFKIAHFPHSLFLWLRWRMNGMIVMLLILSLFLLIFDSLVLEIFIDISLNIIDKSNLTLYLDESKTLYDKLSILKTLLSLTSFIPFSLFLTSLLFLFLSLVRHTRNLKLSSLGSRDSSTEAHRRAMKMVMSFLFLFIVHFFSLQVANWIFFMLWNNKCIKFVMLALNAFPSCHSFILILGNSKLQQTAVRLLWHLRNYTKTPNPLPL
Method: as §1, §2, §3, §4, §5

[6] = target: T6, TAS2R9 (Homo sapiens, UniProt Q9NYW1); experiment: Calcium fluorescence functional assay, TAS2R9 cell line; type: cell-based; conditions: for TAS2R9 bitter taste receptor activity (changes in intracellular calcium): 20 mM tastant, cell line expressing human TAS2R9 and mouse Gα15
T6 construct: expressed in transfected cells
T6 sequence (Q9NYW1 1-312): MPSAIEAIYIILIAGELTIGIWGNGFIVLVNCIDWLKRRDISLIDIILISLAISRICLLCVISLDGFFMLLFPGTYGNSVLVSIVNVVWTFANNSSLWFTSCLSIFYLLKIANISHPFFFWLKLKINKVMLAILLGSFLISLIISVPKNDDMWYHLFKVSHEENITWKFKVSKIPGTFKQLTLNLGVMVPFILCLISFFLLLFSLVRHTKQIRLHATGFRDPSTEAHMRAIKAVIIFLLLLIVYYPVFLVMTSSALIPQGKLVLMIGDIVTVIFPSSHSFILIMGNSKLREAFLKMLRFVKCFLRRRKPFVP
Method: as §1, §2, §3, §4, §5

[7] = system: panel of twenty-five bitter taste receptor expressing cell lines; experiment: Panel of twenty-five bitter receptor expressing cell lines exposed to 20 mM tastant; type: cell-based, human; conditions: the remaining nineteen (KCl) or eighteen receptors
Method: as §1, §2, §3, §4

CC1=CC(=O)NS(=O)(=O)O1 [Acesulfame K]
TAS2R49 bitter taste receptor activity (changes in intracellular calcium) [1]: did not induce | TAS2R13 bitter taste receptor activity (changes in intracellular calcium) [2]: induced | TAS2R41 bitter taste receptor activity (changes in intracellular calcium) [3]: did not induce | TAS2R5 bitter taste receptor activity (changes in intracellular calcium) [4]: did not induce | TAS2R55 bitter taste receptor activity (changes in intracellular calcium) [5]: did not induce | TAS2R9 bitter taste receptor activity (changes in intracellular calcium) [6]: induced | functional response of the remaining (non-responding) receptors of the panel, threshold [7]: ≤ 40%

[Cl-].[K+] [KCl, potassium chloride]
TAS2R49 bitter taste receptor activity (changes in intracellular calcium) [1]: did not induce | TAS2R13 bitter taste receptor activity (changes in intracellular calcium) [2]: induced | EC50 ([2]; increasing concentrations of KCl, TAS2R13 cell line (FIG. 3), read-out: EC50 value, activation of TAS2R13): 5 to 15 mM | TAS2R41 bitter taste receptor activity (changes in intracellular calcium) [3]: did not induce | TAS2R5 bitter taste receptor activity (changes in intracellular calcium) [4]: did not induce | TAS2R55 bitter taste receptor activity (changes in intracellular calcium) [5]: did not induce | TAS2R9 bitter taste receptor activity (changes in intracellular calcium) [6]: induced | EC50 ([6]; increasing concentrations of KCl, TAS2R9 cell line (FIG. 3), read-out: EC50 value, activation of TAS2R9): 5 to 15 mM | functional response of the remaining (non-responding) receptors of the panel, threshold [7]: ≤ 40%

CC(O)C(=O)[O-].[K+] (centres unmarked) [Potassium lactate, potassium lactate]
TAS2R49 bitter taste receptor activity (changes in intracellular calcium) [1]: did not induce | TAS2R13 bitter taste receptor activity (changes in intracellular calcium) [2]: induced | TAS2R41 bitter taste receptor activity (changes in intracellular calcium) [3]: did not induce | TAS2R5 bitter taste receptor activity (changes in intracellular calcium) [4]: did not induce | TAS2R55 bitter taste receptor activity (changes in intracellular calcium) [5]: did not induce | TAS2R9 bitter taste receptor activity (changes in intracellular calcium) [6]: induced | functional response of the remaining (non-responding) receptors of the panel, threshold [7]: ≤ 40%
